Earlier results on 2 compounds are cited in article PMC9332635 (Journal of Food and Drug Analysis, 2017).

The conditions of series [1]: method validation study of isosteviol.
Series [2] deals with HBsAg secretion in HBV-transfected cell-lines.

As to `C[C@@]12CC[C@@H]3[C@@](CC[C@H]4[C@@]3(C)CCC[C@@]4(C)C(=O)O)(CC1=O)C2` [isosteviol], the Long-term stability in series [1] is on record as 61 days.

Turning to `Nc1ccn([C@@H]2CS[C@H](CO)O2)c(=O)n1` [lamivudine], the “IC50 for inhibiting HBsAg secretion” value in series [2] is 49.13 µg/mL.
